Results: patent publication US20240182443A1, “POLYMORPHIC FORMS OF COMPOUND AND PREPARATION METHOD THEREFOR AND APPLICATION THEREOF” (SHANGHAI MEIYUE BIOTECH DEVELOPMENT CO., LTD., priority 2021, published 2024)
Values after ≈ are worked out from the molar mass of the structure shown.

Legend:
Type in all cases: physicochemical
[1] = DVS (dynamic vapor sorption) hygroscopicity test with XRPD of the post-DVS sample; conditions: for hygroscopicity (DVS): within a range of 0-80% RH, 25° C.
Protocol: DVS tests were carried out using a dynamic vapor sorption instrument (Vsorp-Enhanced, proUmid) under the following conditions: adding a sufficient amount of a sample to the Vsorp-Enhanced instrument for simulation of dynamic vapor sorption, recording changes in weight at 25° C. with different humidity equilibrium levels, and subjecting the post-DVS test sample to an XRPD test.
The crystalline form III was characterized by XRPD, PLM, DSC, TGA and DVS. […] (FIG. 8). […] (FIG. 8). The DVS results (FIG. 9) show slight hygroscopicity at only 0.22% within a range of 0-80% RH.
The crystalline form VII was characterized by XRPD, PLM, DSC, TGA and DVS.

[2] = Test for effects of humidity on crystalline forms III and VII at 40° C. (XRPD); conditions: for physical stability (XRPD) / crystalline form change (XRPD): 40° C., 23 h; for physical stability (XRPD): 70% RH; for crystalline form change (XRPD): 80% and 90% RH; for physical stability: at 70% RH or less
Protocol: Therefore, they were further studied at 40° C. for the effects of humidity.

[3] = Solubility test in biological media (SGF, FaSSIF, FeSSIF) with XRPD of samples after the test; conditions: for solubility at 0.5 h / solubility at 24 h / solubility at 2 h: thermodynamic from solid
Protocol: (§1) The solubility of both the crystalline forms III and VII increased with decreasing pH value of the biological medium. Both the crystalline forms were most soluble in SGF (0.323 mg/mL VS 0.183 mg/mL @ 0.5 h) and least soluble in FaSSIF (0.034 mg/mL VS 0.025 mg/mL @ 0.5 h). […] Both the crystalline forms degraded to a certain extent as the stirring continued in the solubility test. The crystalline forms of the crystalline forms III and VII in all the three biological media changed. […] Thus, the compound is unstable in biological media (Table 13).

[4] = Solid stability and chemical stability of crystalline forms III and VII (60° C./sealed and 40° C./75% RH/open, 7 days; HPLC, XRPD); conditions: for chemical stability / crystalline form change (XRPD): 40° C./75% RH (open); for chemical stability / crystalline form change (XRPD) / physical and chemical stability / Purity-7 days (Area %): 7 days; for physical and chemical stability: 60° C. (sealed); for Purity-7 days (Area %) / Initial purity (Area %): HPLC; for Initial purity (Area %): before stability storage
Protocol: The crystalline forms III and VII were subjected to solid stability and chemical stability experiments under conditions of 60° C./sealed and 40° C./75% RH/open for 7 days. […] The amount of the crystalline form IV that formed in the crystalline form III is slightly greater than that in the crystalline form VII.

[5] = HPLC purity of the solubility test samples (stability in biological media); conditions: for HPLC (24 h): calculated as 100% HPLC purity before; for HPLC purity change: all three biological media, calculated as 100% HPLC purity before standing in the media
Protocol: as §1

[6] = Competitive slurrying experiment of crystalline forms I, III, VII and IX in butanone and isopropyl acetate; conditions: VII and IX slurried with butanone and isopropyl acetate
Protocol: A competitive slurrying experiment was carried out by slurrying a certain amount of each of the crystalline forms I, III, VII and IX with butanone and isopropyl acetate.

SMILES	crystalline form after the DVS test (XRPD) [1]	hygroscopicity (DVS) [1]	physical stability (XRPD) [2]	crystalline form change (XRPD) [2]	physical stability [2]	crystalline form after solubility test (XRPD) ([3]; FaSSIF)	pH ([3]; FaSSIF, 0.5 h)	Solubility ([3]; FaSSIF, 2 h)	pH ([3]; FaSSIF, 2 h)	pH ([3]; FaSSIF, 24 h)	crystalline form after solubility test (XRPD) ([3]; FeSSIF)	pH ([3]; FeSSIF, 0.5 h)	pH ([3]; FeSSIF, 2 h)	pH ([3]; FeSSIF, 24 h)	crystalline form after solubility test (XRPD) ([3]; SGF)	pH ([3]; SGF, 0.5 h)	pH ([3]; SGF, 2 h)	pH ([3]; SGF, 24 h)	chemical stability [4]	crystalline form change (XRPD) [4]	also measured
COc1cc2nn([C@H]3CC[C@](C)(O)CC3)cc2cc1NC(=O)c1cccc(C)[n+]1[O-] [crystalline form III, 2-((2-(trans-4-hydroxy-cis-4-methylcyclohexyl)-6-methoxy-2H-indazol-5-yl)carbamoyl)-6-methylpyridine 1-oxide]	transformed into a crystal mixture of the crystalline forms III and IV	0.22%	physically stable	a small amount of hydrate crystalline form IV formed	physically stable	transformed into the crystalline form IV	6.47	0.009 mg/mL (≈ 21.9 µM)	6.47	6.45	a crystal mixture of the crystalline forms IV and XIII	4.88	4.92	4.94	transformed into the crystalline form IV	1.09	1.07	1.24	chemically stable	a small amount of hydrate crystalline form IV formed	solubility at 0.5 h ([3]; FaSSIF, 0.5 h): 34 µg/mL (≈ 82.8 µM); solubility at 24 h ([3]; FaSSIF, 24 h): 7 µg/mL (≈ 17.1 µM); Solubility ([3]; FeSSIF, 0.5 h): 0.105 mg/mL (≈ 256 µM); Solubility ([3]; FeSSIF, 2 h): 0.067 mg/mL (≈ 163 µM); Solubility ([3]; FeSSIF, 24 h): 0.058 mg/mL (≈ 141 µM); Solubility ([3]; SGF, 2 h): 0.289 mg/mL (≈ 704 µM); Solubility ([3]; SGF, 24 h): 0.089 mg/mL (≈ 217 µM); solubility at 0.5 h ([3]; SGF, simulated gastric fluid, 0.5 h): 323 µg/mL (≈ 787 µM); solubility at 0.5 h relative to crystalline form VII ([3]; all three biological media, 0.5 h): 1.5 times; physical and chemical stability [4]: physically and chemically stable; Purity-7 days (Area %) ([4]; 40° C./75% RH, open): 99.96 Area %; Purity-7 days (Area %) ([4]; 60° C., sealed): 99.97 Area %; Initial purity (Area %) [4]: 99.96 Area %; HPLC (24 h) ([5]; FaSSIF): 97.99%; HPLC (24 h) ([5]; FeSSIF): 96.89%; HPLC (24 h) ([5]; SGF): 99.69%; HPLC purity change [5]: decreased to a certain extent
COc1cc2nn([C@H]3CC[C@](C)(O)CC3)cc2cc1NC(=O)c1cccc(C)[n+]1[O-] [crystalline form VII, 2-((2-(trans-4-hydroxy-cis-4-methylcyclohexyl)-6-methoxy-2H-indazol-5-yl)carbamoyl)-6-methylpyridine 1-oxide]	remained the same as that before the DVS test	0.29%	physically stable	a small amount of hydrate crystalline form IV formed	physically stable	transformed into the crystalline form IV	6.42	0.029 mg/mL (≈ 70.7 µM)	6.44	6.48	transformed into the crystalline form IV	4.86	4.90	4.91	a crystal mixture of the crystalline forms IV and XV	1.23	1.16	1.26	chemically stable	a small amount of hydrate crystalline form IV formed	crystalline form resulting from competitive slurrying [6]: can be produced from various slurrying processes; Solubility ([3]; FaSSIF, 0.5 h): 0.025 mg/mL (≈ 60.9 µM); Solubility ([3]; FaSSIF, 24 h): 0.007 mg/mL (≈ 17.1 µM); solubility at 0.5 h ([3]; FeSSIF, 0.5 h): 68 µg/mL (≈ 166 µM); solubility at 2 h ([3]; FeSSIF, 2 h): 65 µg/mL (≈ 158 µM); solubility at 24 h ([3]; FeSSIF, 24 h): 65 µg/mL (≈ 158 µM); Solubility ([3]; SGF, 0.5 h): 0.183 mg/mL (≈ 446 µM); solubility at 2 h ([3]; SGF, simulated gastric fluid, 2 h): 147 µg/mL (≈ 358 µM); solubility at 24 h ([3]; SGF, simulated gastric fluid, 24 h): 92 µg/mL (≈ 224 µM); physical and chemical stability [4]: physically and chemically stable; Purity-7 days (Area %) ([4]; 40° C./75% RH, open): 99.93 Area %; Purity-7 days (Area %) ([4]; 60° C., sealed): 99.94 Area %; Initial purity (Area %) [4]: 99.92 Area %; HPLC (24 h) ([5]; FaSSIF): 93.49%; HPLC (24 h) ([5]; FeSSIF): 93.13%; HPLC (24 h) ([5]; SGF): 99.46%; HPLC purity change [5]: decreased to a certain extent
